Assay results reported in ChEMBL document CHEMBL4024706 (Eur J Med Chem, 2017).

Assays:
[1] = tested on: ALK tyrosine kinase receptor (Homo sapiens), Q9UM73 [L1196M]; test: Inhibition of […] human partial length ALK L1196M mutant (I1088 to E1409 residues) expressed in mammalian expression system assessed as residual activity at 1 uM by Kinomescan method relative to control
[2] = target: Dual specificity protein kinase CLK3 (Homo sapiens) (UniProt P49761); test: Inhibition of wild-type human full length CLK3 (M1 to R490 residues) expressed in bacterial expression system assessed as residual activity at 1 uM by Kinomescan method relative to control
Sequence of Dual specificity protein kinase CLK3 (Homo sapiens) (P49761 whole entry, looked up, the tested form may be a part): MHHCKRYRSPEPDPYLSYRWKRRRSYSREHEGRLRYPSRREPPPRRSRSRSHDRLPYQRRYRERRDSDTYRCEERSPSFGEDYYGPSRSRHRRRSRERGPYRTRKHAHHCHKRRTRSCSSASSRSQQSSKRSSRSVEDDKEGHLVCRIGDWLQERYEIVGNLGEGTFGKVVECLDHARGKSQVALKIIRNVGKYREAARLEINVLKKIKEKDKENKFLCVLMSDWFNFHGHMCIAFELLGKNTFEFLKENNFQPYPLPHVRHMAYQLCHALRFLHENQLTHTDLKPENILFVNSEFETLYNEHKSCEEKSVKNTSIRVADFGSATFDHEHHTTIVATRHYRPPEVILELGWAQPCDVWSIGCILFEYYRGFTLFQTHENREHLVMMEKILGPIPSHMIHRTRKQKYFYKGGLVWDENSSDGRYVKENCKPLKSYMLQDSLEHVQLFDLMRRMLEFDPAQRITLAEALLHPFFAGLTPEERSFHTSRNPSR

[3] = target: Death-associated protein kinase 2 (Homo sapiens) (UniProt Q9UIK4); test: Inhibition of wild-type human full length DAPK2 (M1 to S370 residues) expressed in bacterial expression system assessed as residual activity at 1 uM by Kinomescan method relative to control
Sequence of Death-associated protein kinase 2 (Homo sapiens) (Q9UIK4 whole entry, looked up, the tested form may be a part): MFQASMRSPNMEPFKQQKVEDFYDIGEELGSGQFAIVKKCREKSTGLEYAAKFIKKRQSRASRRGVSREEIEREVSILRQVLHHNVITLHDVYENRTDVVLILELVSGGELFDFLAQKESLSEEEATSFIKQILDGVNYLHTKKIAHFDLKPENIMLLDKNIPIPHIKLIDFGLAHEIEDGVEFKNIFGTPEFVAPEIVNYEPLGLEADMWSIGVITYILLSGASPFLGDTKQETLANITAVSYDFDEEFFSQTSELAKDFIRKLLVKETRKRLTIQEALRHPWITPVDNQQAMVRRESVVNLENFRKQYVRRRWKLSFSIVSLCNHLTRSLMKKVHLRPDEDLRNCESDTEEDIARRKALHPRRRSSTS

[4] = target: Ephrin type-B receptor 4 (Homo sapiens) (UniProt P54760); test: Inhibition of wild-type human partial length EPHB4 (H585 to G892 residues) expressed in bacterial expression system assessed as residual activity at 1 uM by Kinomescan method relative to control
Sequence of Ephrin type-B receptor 4 (Homo sapiens) (P54760 whole entry, the tested form may be a part): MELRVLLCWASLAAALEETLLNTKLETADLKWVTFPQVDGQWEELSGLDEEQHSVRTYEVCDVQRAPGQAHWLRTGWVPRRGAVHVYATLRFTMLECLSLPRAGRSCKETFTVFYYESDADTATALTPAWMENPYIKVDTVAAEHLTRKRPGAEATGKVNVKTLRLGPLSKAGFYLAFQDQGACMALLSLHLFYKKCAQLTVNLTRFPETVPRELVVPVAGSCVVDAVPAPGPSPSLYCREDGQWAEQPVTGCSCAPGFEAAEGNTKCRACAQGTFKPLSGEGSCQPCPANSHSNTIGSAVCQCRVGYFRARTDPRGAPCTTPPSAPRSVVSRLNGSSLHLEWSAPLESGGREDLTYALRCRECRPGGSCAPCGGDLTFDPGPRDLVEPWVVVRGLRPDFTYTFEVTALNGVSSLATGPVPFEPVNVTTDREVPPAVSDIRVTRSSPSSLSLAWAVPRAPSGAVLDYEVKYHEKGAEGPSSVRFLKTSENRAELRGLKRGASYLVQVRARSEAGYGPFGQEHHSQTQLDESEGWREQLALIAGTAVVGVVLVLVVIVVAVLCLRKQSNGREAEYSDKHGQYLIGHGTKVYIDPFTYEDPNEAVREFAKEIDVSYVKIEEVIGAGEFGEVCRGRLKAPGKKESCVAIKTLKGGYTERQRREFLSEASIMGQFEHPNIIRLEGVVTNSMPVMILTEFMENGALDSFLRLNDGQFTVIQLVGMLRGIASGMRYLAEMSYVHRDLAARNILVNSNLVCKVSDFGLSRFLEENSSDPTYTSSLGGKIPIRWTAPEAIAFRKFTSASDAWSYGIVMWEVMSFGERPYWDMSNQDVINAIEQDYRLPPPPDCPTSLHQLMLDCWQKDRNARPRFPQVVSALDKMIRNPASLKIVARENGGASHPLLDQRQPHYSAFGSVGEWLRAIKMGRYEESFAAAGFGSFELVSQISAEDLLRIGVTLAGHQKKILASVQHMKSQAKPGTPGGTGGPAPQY

[5] = tested on: Mast/stem cell growth factor receptor Kit (Homo sapiens), P10721 [V559D]; test: Inhibition of human partial length KIT V559D mutant (Y545 to D952 residues) expressed in bacterial expression system assessed as residual activity at 1 uM by Kinomescan method relative to control
[6] = tested on: Leucine-rich repeat serine/threonine-protein kinase 2 (Homo sapiens), Q5S007 [G2019S]; test: Inhibition of human partial length LRRK2 G2019S mutant (H970 to E2527 residues) expressed in mammalian expression system assessed as residual activity at 1 uM by Kinomescan method relative to control
[7] = target: Serine/threonine-protein kinase MARK1 (Homo sapiens) (UniProt Q9P0L2); test: Inhibition of wild-type human partial length MARK1 (Q30 to T341 residues) expressed in bacterial expression system assessed as residual activity at 1 uM by Kinomescan method relative to control
[8] = target: Dual specificity mitogen-activated protein kinase kinase 1 (Homo sapiens) (UniProt Q02750); test: Inhibition of wild-type human full length MEK1 (M1 to V393 residues) expressed in mammalian expression system assessed as residual activity at 1 uM by Kinomescan method relative to control
Sequence of Dual specificity mitogen-activated protein kinase kinase 1 (Homo sapiens) (Q02750 whole entry, the tested form may be a part): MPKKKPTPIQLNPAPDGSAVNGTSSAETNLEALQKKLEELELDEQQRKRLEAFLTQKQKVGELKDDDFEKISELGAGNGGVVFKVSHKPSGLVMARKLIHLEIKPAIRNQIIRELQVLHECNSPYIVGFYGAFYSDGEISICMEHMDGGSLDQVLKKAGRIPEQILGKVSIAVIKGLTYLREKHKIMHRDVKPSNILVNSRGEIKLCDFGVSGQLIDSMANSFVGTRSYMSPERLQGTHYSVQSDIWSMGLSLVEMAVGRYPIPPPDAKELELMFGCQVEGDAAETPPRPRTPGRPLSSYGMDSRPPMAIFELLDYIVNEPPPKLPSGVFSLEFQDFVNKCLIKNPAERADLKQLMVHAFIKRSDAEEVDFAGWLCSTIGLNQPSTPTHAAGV

[9] = target: Serine/threonine-protein kinase OSR1 (Homo sapiens) (UniProt O95747); test: Inhibition of wild-type human full length OSR1 (M1 to S527 residues) expressed in mammalian expression system assessed as residual activity at 1 uM by Kinomescan method relative to control
Sequence of Serine/threonine-protein kinase OSR1 (Homo sapiens) (O95747 2-527 limits assumed): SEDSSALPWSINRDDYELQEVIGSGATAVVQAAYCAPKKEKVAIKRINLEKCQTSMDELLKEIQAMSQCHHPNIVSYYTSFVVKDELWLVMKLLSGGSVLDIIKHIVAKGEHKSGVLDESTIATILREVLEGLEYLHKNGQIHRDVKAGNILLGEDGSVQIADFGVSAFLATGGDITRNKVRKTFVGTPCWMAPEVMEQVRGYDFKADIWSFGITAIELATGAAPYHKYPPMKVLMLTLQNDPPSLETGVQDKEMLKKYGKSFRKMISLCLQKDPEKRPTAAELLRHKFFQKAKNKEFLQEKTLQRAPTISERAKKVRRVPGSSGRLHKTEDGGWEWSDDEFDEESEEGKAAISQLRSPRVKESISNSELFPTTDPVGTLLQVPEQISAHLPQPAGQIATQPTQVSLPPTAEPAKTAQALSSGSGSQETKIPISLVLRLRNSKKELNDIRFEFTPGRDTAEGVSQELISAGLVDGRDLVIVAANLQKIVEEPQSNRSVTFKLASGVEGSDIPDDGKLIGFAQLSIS

[10] = target: Serine/threonine-protein kinase N2 (Homo sapiens) (UniProt Q16513); test: Inhibition of wild-type human partial length PKN2 (E634 to C984 residues) expressed in bacterial expression system assessed as residual activity at 1 uM by Kinomescan method relative to control
[11] = target: cGMP-dependent protein kinase 2 (Homo sapiens) (UniProt Q13237); test: Inhibition of wild-type human partial length PRKG2 (S422 to F762 residues) expressed in mammalian expression system assessed as residual activity at 1 uM by Kinomescan method relative to control
[12] = target: Uncharacterized serine/threonine-protein kinase SBK3 (Homo sapiens) (UniProt P0C264); test: Inhibition of wild-type human partial length SgK110 (L22 to R329 residues) expressed in bacterial expression system assessed as residual activity at 1 uM by Kinomescan method relative to control
Sequence of Uncharacterized serine/threonine-protein kinase SBK3 (Homo sapiens) (P0C264 whole entry, the tested form may be a part): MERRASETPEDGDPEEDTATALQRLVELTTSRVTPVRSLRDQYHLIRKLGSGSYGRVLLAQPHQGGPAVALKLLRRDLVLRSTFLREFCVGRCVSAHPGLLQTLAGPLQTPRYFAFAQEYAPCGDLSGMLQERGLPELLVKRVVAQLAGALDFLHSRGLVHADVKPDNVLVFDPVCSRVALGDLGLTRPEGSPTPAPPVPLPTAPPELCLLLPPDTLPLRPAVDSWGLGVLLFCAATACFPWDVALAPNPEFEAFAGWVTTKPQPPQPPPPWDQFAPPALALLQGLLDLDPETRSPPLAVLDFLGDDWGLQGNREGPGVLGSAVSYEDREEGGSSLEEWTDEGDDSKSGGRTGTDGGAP

Sequence of ALK tyrosine kinase receptor (Homo sapiens), Q9UM73 [L1196M] (Q9UM73 whole entry L1196M, looked up, the tested form may be a part): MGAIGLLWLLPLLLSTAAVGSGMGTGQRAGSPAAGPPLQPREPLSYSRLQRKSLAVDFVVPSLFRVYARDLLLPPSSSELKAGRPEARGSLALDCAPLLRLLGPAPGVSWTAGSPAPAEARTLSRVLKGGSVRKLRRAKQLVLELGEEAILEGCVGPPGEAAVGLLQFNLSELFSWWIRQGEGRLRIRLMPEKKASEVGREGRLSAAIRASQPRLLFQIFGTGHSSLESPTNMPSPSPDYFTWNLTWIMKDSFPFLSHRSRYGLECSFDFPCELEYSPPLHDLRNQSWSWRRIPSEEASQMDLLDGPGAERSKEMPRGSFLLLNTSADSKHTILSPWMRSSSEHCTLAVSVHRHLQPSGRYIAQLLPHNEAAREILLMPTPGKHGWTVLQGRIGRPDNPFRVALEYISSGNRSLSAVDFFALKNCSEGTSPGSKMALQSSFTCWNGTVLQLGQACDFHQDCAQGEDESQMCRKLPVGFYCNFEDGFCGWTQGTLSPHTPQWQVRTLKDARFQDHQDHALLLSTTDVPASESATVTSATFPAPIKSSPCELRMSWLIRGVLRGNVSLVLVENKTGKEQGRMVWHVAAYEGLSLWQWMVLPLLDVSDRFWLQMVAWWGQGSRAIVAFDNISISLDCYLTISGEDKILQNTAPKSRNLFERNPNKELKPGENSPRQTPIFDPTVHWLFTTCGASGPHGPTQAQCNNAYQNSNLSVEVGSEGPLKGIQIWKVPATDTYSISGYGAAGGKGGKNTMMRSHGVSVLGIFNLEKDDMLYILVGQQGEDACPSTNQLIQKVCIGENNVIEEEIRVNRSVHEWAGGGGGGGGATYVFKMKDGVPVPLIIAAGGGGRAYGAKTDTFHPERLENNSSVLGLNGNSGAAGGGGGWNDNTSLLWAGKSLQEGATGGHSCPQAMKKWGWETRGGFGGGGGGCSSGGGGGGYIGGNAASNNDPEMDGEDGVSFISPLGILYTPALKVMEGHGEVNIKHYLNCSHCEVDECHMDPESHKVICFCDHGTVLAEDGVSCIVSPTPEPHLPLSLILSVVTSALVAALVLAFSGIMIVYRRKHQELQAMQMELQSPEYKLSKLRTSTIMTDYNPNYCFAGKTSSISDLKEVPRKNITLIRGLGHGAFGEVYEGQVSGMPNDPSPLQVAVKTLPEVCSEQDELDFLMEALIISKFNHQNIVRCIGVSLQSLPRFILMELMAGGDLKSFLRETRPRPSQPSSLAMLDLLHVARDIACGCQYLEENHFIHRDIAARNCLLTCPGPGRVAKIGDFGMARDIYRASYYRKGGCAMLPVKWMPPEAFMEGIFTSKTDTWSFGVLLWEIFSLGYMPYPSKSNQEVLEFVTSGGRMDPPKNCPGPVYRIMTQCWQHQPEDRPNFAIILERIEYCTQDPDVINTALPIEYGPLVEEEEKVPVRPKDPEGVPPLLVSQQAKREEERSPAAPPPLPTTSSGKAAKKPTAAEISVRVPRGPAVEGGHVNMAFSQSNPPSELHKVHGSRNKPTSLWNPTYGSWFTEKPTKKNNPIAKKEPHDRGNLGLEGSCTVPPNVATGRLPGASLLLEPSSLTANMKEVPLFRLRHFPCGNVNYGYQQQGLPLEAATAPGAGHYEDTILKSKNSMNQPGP

C=CC(=O)Nc1cc(Nc2cc(-c3cccc(NC(=O)c4ccc(C(C)(C)C)cc4)c3C)cn(C)c2=O)ccc1C(=O)N1CCOCC1
Activity [1]: 96%
Activity [2]: 98%
Activity [3]: 99%
Activity [4]: 88%
Activity [5]: 93%
Activity [6]: 58%
Activity [7]: 88%
Activity [8]: 100%
Activity [9]: 100%
Activity [10]: 93%
Activity [11]: 96%
Activity [12]: 77%
